Values joined by “and” are separate entries in the source; they are usually repeats but may differ in a detail not shown here. Equal values may be shown once.
Tested on: HOP-62 complex spheroids with HUVEC/MSC, viability
Test: Anticancer human tumor HOP-62 cell line growth inhibition [RAS];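 also: spheroids exposed to agents for seven days before readout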;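 as to viability, T/C: 100% = DMSO vehicle control viability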
Conditions: for viability, T/C: stronger effect = lower value
How it was run: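 Tumour cells grown as complex spheroids with HUVEC endothelial cells and mesenchymal stem cells, treated with RAS pathway inhibitor combinations. Each agent spans half-log steps from near clinical Cmax, or 10 microM where Cmax is unknown.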

CCC(CC)c1cc(NC2CCC(N)C2)n2nccc2n1 (centres undefined)
viability, T/C (compound 0.0316 µM): 115% [middle of 4 runs] | viability, T/C (compound 0.1 µM): 112% [middle of 4 runs] | viability, T/C (compound 0.316 µM): 112% [middle of 4 runs] | viability, T/C (compound 1 µM): 109% and 108% (2×) and 113% | viability, T/C (compound 3.16 µM): 9.12% [middle of 4 runs] | viability, T/C (compound 10 µM): 1.18% [middle of 4 runs] | IC50 (curve of compound): 1900 nM and 1970 nM and 2030 nM

CC1(C)CCC(Nc2ncc(C(F)(F)F)c(-c3c[nH]c4c(P(C)(C)=O)c(C#N)ccc34)n2)CN1 (centres undefined) + C#Cc1c(F)ccc2cc(O)cc(-c3ncc4c(N5CC6CCC(C5)N6)nc(OCC56CCCN5CC(F)C6)nc4c3F)c12
IC50 (curve of first compound, second compound 0.0316 µM): 2.01 nM | IC50 (curve of first compound, second compound 0.1 µM): 1.73 nM | IC50 (curve of first compound, second compound 0.316 µM): 2.05 nM | IC50 (curve of first compound, second compound 1 µM): 1.8 nM | IC50 (curve of first compound, second compound 3.16 µM): 1.33 nM | IC50 (curve of first compound, second compound 10 µM): < 0.949 nM | viability, T/C (second compound 0.0316 µM, first compound 0.000949 µM): 76.3% | viability, T/C (second compound 0.0316 µM, first compound 0.003 µM): 35.9% | viability, T/C (second compound 0.0316 µM, first compound 0.00949 µM): 22.1% | viability, T/C (second compound 0.0316 µM, first compound 0.03 µM): 24.1% | viability, T/C (second compound 0.0316 µM, first compound 0.0949 µM): 27.6% | viability, T/C (second compound 0.0316 µM, first compound 0.3 µM): 25.8% | viability, T/C (second compound 0.1 µM, first compound 0.000949 µM): 72.1% | viability, T/C (second compound 0.1 µM, first compound 0.003 µM): 30.1% | viability, T/C (second compound 0.1 µM, first compound 0.00949 µM): 23.6% | viability, T/C (second compound 0.1 µM, first compound 0.03 µM): 24% | viability, T/C (second compound 0.1 µM, first compound 0.0949 µM): 25.8% | viability, T/C (second compound 0.1 µM, first compound 0.3 µM): 28.5% | viability, T/C (second compound 0.316 µM, first compound 0.000949 µM): 73.2% | viability, T/C (second compound 0.316 µM, first compound 0.003 µM): 38.5% | viability, T/C (second compound 0.316 µM, first compound 0.00949 µM): 21% | viability, T/C (second compound 0.316 µM, first compound 0.03 µM): 21.6% | viability, T/C (second compound 0.316 µM, first compound 0.0949 µM): 26% | viability, T/C (second compound 0.316 µM, first compound 0.3 µM): 29.3% | viability, T/C (second compound 1 µM, first compound 0.000949 µM): 75.3% | viability, T/C (second compound 1 µM, first compound 0.003 µM): 29.9% | viability, T/C (second compound 1 µM, first compound 0.00949 µM): 23.4% | viability, T/C (second compound 1 µM, first compound 0.03 µM): 25% | viability, T/C (second compound 1 µM, first compound 0.0949 µM): 26% | viability, T/C (second compound 1 µM, first compound 0.3 µM): 25.2% | viability, T/C (second compound 3.16 µM, first compound 0.000949 µM): 57.4% | viability, T/C (second compound 3.16 µM, first compound 0.003 µM): 32.1% | viability, T/C (second compound 3.16 µM, first compound 0.00949 µM): 26.4% | viability, T/C (second compound 3.16 µM, first compound 0.03 µM): 24.7% | viability, T/C (second compound 3.16 µM, first compound 0.0949 µM): 27.8% | viability, T/C (second compound 3.16 µM, first compound 0.3 µM): 26.4% | viability, T/C (second compound 10 µM, first compound 0.000949 µM): 47.8% | viability, T/C (second compound 10 µM, first compound 0.003 µM): 30.8% | viability, T/C (second compound 10 µM, first compound 0.00949 µM): 29.3% | viability, T/C (second compound 10 µM, first compound 0.03 µM): 28.3% | viability, T/C (second compound 10 µM, first compound 0.0949 µM): 31% | viability, T/C (second compound 10 µM, first compound 0.3 µM): 33.9%

Reference: PubChem BioAssay AID2060892 (Molecular Pharmacology Branch, DTP, NCI, 2025)
